# Laboratory results taken from article PMC11372839, “Unraveling the Potential of Vitamin B3-Derived Salts with a Salicylate Anion as Dermal Active Agents for Acne Treatment” (Molecular Pharmaceutics, 2024).
# Where two headings read alike, the source gives them in different places.
# What was measured:
# [1] = Octanol–water partition coefficient, shake-flask method (OECD Test No. 107); assay type: physicochemical
# Method: The octanol–water partition coefficients (KOW) of the synthesized products were estimated by the shake-flask method according to the OECD Test No. 107 guidelines (Partition Coefficient n-Octanol/Water: Shake-Flask Method). Measurements were performed using mutually saturated distilled water and 1-octanol in a glass vial containing a magnetic stir bar. First, the synthesized products were dissolved in distilled water (or 1-octanol) at a chosen concentration (0.01 mol per 1 L of octanol or water), and then proper amounts of the second solvent (octanol or water) were added. Subsequently, two duplicate runs were carried out with different solvent ratios: 4 mL of 1-octanol and 2 mL of water (2:1), 4 mL of 1-octanol and 4 mL of water (1:1), and 4 mL of 1-octanol and 8 mL of water ([…]). All vials were shaken at a constant temperature of 25 °C. After 24 h, all samples were centrifuged and the aqueous and octanolic phases were collected with a syringe. The concentrations of compounds in water were determined spectrophotometrically using a Rayleigh UV-1601 spectrophotometer (Beijing Beifen-Ruili Analytical, China) based on calibration curves made previously (at λmax = 262 nm) vs concentration for each substance. Two repetitions of each measurement were performed in a specific solvent ratio (1:1, 1:2, and 2:1). Finally, the log KOW was calculated as the average of six results collected for each compound.
# The outermost layer of the skin (stratum corneum) contains around […] water, a relatively low amount compared to the rest of the human body. Given the hydrophobic nature of 1-octanol, it can be used as a simplified model for the stratum corneum.[50] The octanol–water partition coefficient (KOW) value represents the proportion between the concentrations of a substance in both liquid phases of a system composed of water and 1-octanol. […] The log KOW values are given in Figure 6 (exact values are provided in Table S4, Supporting Information).
# [2] = Solubility in PBS; details: for Solubility in PBS, Class: Pharmacopeia solubility class, PBS pH 7.4, 25 °C
# Method: The solubility in PBS solution was determined by placing 1 g (±0.0001) of tested compound in a round-bottom flask and adding specific parts of the PBS solution in portions until full dissolution. The samples were vigorously stirred for at least 5 min before the addition of the next portion of PBS, and the systems were thermostated at 25 °C. Three repetitions of the measurement were performed for each of the compounds.
# Most studies on the solubility of novel APIs are carried out with pure water, aqueous PBS solutions were much more preferred due to their higher similarity to intra- and intercellular media in epidermis, while envisaging their use in transdermal delivery and skin care applications.[60] […] The collected data are presented in Figure 8 (as well as in Table S6 in the Supporting Information).
# [3] = tested on: Artemia franciscana; assay: Ecotoxicity toward aquatic life, Artoxkit M immobilization test; assay type: in vivo; details: for EC50: Artemia franciscana; for Class: acute toxicity rating scale by Fish and Wildlife Service
# Method: To determine the EC50 parameter for compounds, tests were carried out on marine crustaceans—Artemia franciscana (A. franciscana). The methodology proposed in the Artoxkit M test (MicroBioTests Inc., Gent, Belgium) was developed according to the ASTM E1440-91 standard.
# The hatching process was started first. For this purpose, 50 mg of cysts was transferred to the Petri dishes attached to the Artoxkit M set, which were then immersed in 10 mL of artificial seawater with a salinity of 35‰ (a medium for the development of the tested organisms, as well as a solvent for preparing solutions of the tested compounds) and placed at a temperature of 25 °C, with access to light (6000–10,000 lux) for 30 h. Then, 2 h before placing them on the Artoxkit M plates, 20 mg of spirulina was added to cultured artemias. In addition, 1 h before the analysis, the used seawater was oxygenated by passing a stream of air through the solution. To each of the four cells in a given row of a plate from the Artoxkit M kit, 1 mL of solution at the specified concentrations (or the appropriate medium in the case of a control) were introduced. In the first column of cells (a control sample and five selected concentrations), no less than 30 artemias were placed from previously prepared Petri dishes. Then, from the first cell in the first column, artemias were collected at the selected concentration and added to the next three cells in the selected row, 10 organisms per cell. After the organisms were introduced into the appropriate cells, the plates were covered with Parafilm and then closed with a plastic cap. The prepared kit was incubated at 25 °C and protected from light. Number of motionless organisms were counted after 24 and 48 h. Immobilization was then calculated (eq 1) in relation to the number of organisms at the start of the test: [drawing 1] 1
# Next, the dependence between the effect and concentration of the tested compounds was plotted, and on this basis, an EC50 value was determined.
# [4] = Contact angle of aqueous solutions, sessile drop method on paraffin; assay type: physicochemical; details: aqueous solution, 25 °C
# Method: The contact angle (CA) measurements were carried out using a DSA100S analyzer (Krüss, Germany, accuracy ±0.1°), at 25 °C. The determination of the contact angle was based on the sessile drop method, i.e., drops of the analyzed solution were deposited on a solid surface (paraffin). The images of the drops were taken with a CCD camera, digitized, and evaluated using Young–Laplace fitting. The CA was determined as the slope of the tangent line at the contact point between the 3 phases (solution, paraffin surface, and air).
# In the case of seborrheic skin, which occurs among many people affected by acne, the epidermis is covered by a hydrophobic lipid layer, which impedes the penetration of active substances, especially those that are well soluble in water. In addition, ensuring proper drug absorption through the skin can also reduce the risk of side effects and increase the effectiveness of therapy.[72] The addition of surfactants, which improve the wettability of hydrophobic surfaces, can be a solution to this problem.[73],[74] […] Wettability analyses of aqueous solutions of the new APIs were carried out on paraffin, whose hydrophobicity is similar to that of the human skin.[75] Experiments were performed at concentrations corresponding to common NA and SAL contents in commercial formulations (0.25–1.00%).[67],[76],[77] Due to low solubilities of 5–7, tests for these salts were performed at concentrations of 0.25, 0.03, and 0.01%, respectively (please see Figure S43 in the Supporting Information).
# [5] = tested on: Pseudomonas aeruginosa; assay: MIC and MBC determination, microdilution method; assay type: cell-based; details: for MIC: 18 h, read-out: MIC, P. aeruginosa
# Method: (§1) The antimicrobial activities of the compounds were tested against clinical strains of an aerobic Gram-negative bacterium—Pseudomonas aeruginosa (P. aeruginosa), facultative anaerobic Gram-positive bacteria—Staphylococcus aureus (S. aureus) and Staphylococcus epidermidis (S. epidermidis), anaerobic Gram-positive bacterium—Cutibacterium acnes (C. acnes), and yeast-like fungus—Candida albicans (C. albicans).
# (§2) Aerobic and facultative anaerobic bacteria cultures were grown in Brain Heart Infusion broth (BHI, bioMerieux, France) at 35 °C ± 1 °C for 18 h, C. acnes cultures were grown in thioglycolate broth with resazurin (TGB, bioMerieux, France) at 35 ± 1 °C for 48 h, and yeast cultures were grown in Sabouraud dextrose broth (SDB, Merck, Germany) at 35 ± 1 °C for 24 h. After incubation, each culture was diluted in a suitable liquid medium: P. aeruginosa, S. aureus, and S. epidermidis—Mueller–Hinton broth (MHB; Oxoid, UK); C. acnes—TGB; and C. albicans—SDB, to obtain a final suspension containing about 10^6 CFU/mL.
# (§3) The microdilution method was employed to determine the compounds’ MIC (Minimal Inhibitory Concentration) and MBC/MFC (Minimal Bactericidal Concentration/Minimal Fungicidal Concentration) against the tested bacterial and fungal strains.
# (§4) The compounds were serially diluted (2-fold) in the respective media (P. aeruginosa, S. aureus, and S. epidermidis—MHB, C. acnes—TGB, and C. albicans—SDB in 96-well plates), and the microbial suspensions were added. The compounds were tested in the final concentration range of 4 096 to 0.125 μg/mL, and the final microbial inoculum was approximately 5 ×10^5 CFU/mL. The tests were incubated at 35 °C ± 1 °C for 18 h (P. aeruginosa, S. aureus, and S. epidermidis) or 24 h (C. albicans) or 48 h (C. acnes). C. acnes was incubated in an anaerobic atmosphere using a GENbag anaer (bioMerieux, France). Media (without the strains) added to the different concentrations of tested compounds and media inoculated with microbial suspension were used as a negative control and growth control, respectively.
# (§5) The MIC was defined as the lowest concentration at which visible growth was inhibited. MBC and MFC concentrations were determined as an extension of the MIC test. […] The plates were incubated at 35 ± 1 °C for 18–72 h. C. acnes was incubated in an anaerobic atmosphere. The MBC/MFC was defined as the lowest concentration at which no growth was observed. All tests were performed in duplicate.
# [6] = tested on: Cutibacterium acnes; assay: MIC and MBC determination, microdilution method; assay type: cell-based
# Method: as §1, §2, §3, §4, §5
# [7] = tested on: Staphylococcus aureus; assay: MIC and MBC determination, microdilution method; assay type: cell-based; details: for MIC: 18 h, read-out: MIC, S. aureus; for MBC: read-out: MBC, S. aureus
# Method: as §1, §2, §3, §4, §5
# [8] = tested on: Staphylococcus epidermidis; assay: MIC and MBC determination, microdilution method;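 for all read-outs here: column refers to Staphylococcus epidermidis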; assay type: cell-based; details: for MIC: 18 h, read-out: MIC, S. epidermidis; for MBC: read-out: MBC, S. epidermidis
# Method: as §1, §2, §3, §4, §5
# [9] = tested on: Candida albicans; assay: MIC and MFC determination, microdilution method; assay type: cell-based; details: for MIC: 24 h, read-out: MIC, C. albicans
# Method: as §1, §2, §3, §4, §5
# [10] = parameters: method as in doi:10.1080/10826076.2015.1057642, PMID 22469554, PMID 31982561; details: frequently used topical acne agents; cited from earlier work
# [11] = toxicity range of EC50, read-out: Range
# [12] = volume of PBS (pH 7.4) to dissolve 1 g, 25 °C
# [13] = shake-flask, 25 °C, 24 h, average of six results, read-out: Octanol-water partition coefficient (log Kow)
smiles,measurement,setting,value
"NC(=O)c1cccnc1 [NA, nicotinamide, reference compound]",logP at 24 h,[1],-0.66
same,"Solubility in PBS, PBS [ml]",[2]; pH 7.4,< 1 mL
same,EC50,[3]; [11],> 1000 µg/mL
same,Class,[3],Relatively Harmless (>1000)
same,Contact angle,[4]; concentration 0.25%,112.7 °
same,Contact angle,[4]; concentration 0.50%,110.7 °
same,Contact angle,[4]; concentration 1.00%,110.6 °
"NC(=O)c1cccnc1.O=C(O)c1ccccc1O [[NA][SAL], reference compound]",MIC,[5],2050 µg/mL
same,"MBC, C. acnes","[6]; clinical strain, anaerobic, tested 4 096 to 0.125 μg/mL, b = out of range",did not show bactericidal activity
same,MIC,[7],2050 µg/mL
same,MBC,[7],2050 µg/mL
same,MIC,[8],2050 µg/mL
same,MBC,[8],2050 µg/mL
same,"Solubility in PBS, Class",[2],Sparingly Soluble (30-100)
same,"Solubility in PBS, PBS [ml]",[2]; [12],30 to 100 mL
same,EC50,[3],565 µg/mL
same,EC50,[3]; read-out: Range,100 to 1000 µg/mL
same,Class,[3],Practically Nontoxic (100-1000)
same,Contact angle,[4]; concentration 0.25%,110.5 °
same,Contact angle,[4]; concentration 0.50%,108.3 °
same,Contact angle,[4]; concentration 1.00%,99.9 °
same,Contact angle,"[4]; concentration 1.00%, listed as cocrystal",100 °
same,MIC,[9],2050 µg/mL
O=C(O)CCCCCCCC(=O)O [azelaic acid],log KOW,[10],1.42
CC[n+]1cccc(C(N)=O)c1.O=C([O-])c1ccccc1O [compound 1],logP at 24 h,[1]; [13],-1.15
same,MIC,[7],1020 µg/mL
same,MIC,[8],4100 µg/mL
same,"Solubility in PBS, Class",[2],Very Soluble (<1)
same,"Solubility in PBS, PBS [ml]",[2]; [12],< 1 mL
same,EC50,[3]; [11],> 1000 µg/mL
same,Class,[3],Relatively Harmless (>1000)
same,Contact angle,[4]; concentration 0.25%,112.1 °
same,Contact angle,[4]; concentration 0.50%,110.3 °
same,Contact angle,[4]; concentration 1.00%,109.7 °
CCCC[n+]1cccc(C(N)=O)c1.O=C([O-])c1ccccc1O [compound 2],logP at 24 h,[1]; [13],-0.7
same,MIC,[7],1020 µg/mL
same,MIC,[8],2050 µg/mL
same,"Solubility in PBS, Class",[2],Very Soluble (<1)
same,"Solubility in PBS, PBS [ml]",[2]; [12],< 1 mL
same,EC50,[3]; [11],> 1000 µg/mL
same,Class,[3],Relatively Harmless (>1000)
same,Contact angle,[4]; concentration 0.25%,102.7 °
same,Contact angle,[4]; concentration 0.50%,104.3 °
same,Contact angle,[4]; concentration 1.00%,103.9 °
CCCCCCCCCCCCCC[n+]1cccc(C(N)=O)c1.O=C([O-])c1ccccc1O [compound 7],logP at 24 h,[1]; [13],1.34
same,MIC,[5],64 µg/mL
same,MBC,"[5]; read-out: MBC, P. aeruginosa",64 µg/mL
same,MIC,"[6]; Cutibacterium acnes, 48 h, read-out: MIC, C. acnes",4 µg/mL
same,MBC,"[6]; Cutibacterium acnes, read-out: MBC, C. acnes",4 µg/mL
same,MIC,[7],0.5 µg/mL
same,MBC,[7],0.5 µg/mL
same,MIC,[8],4 µg/mL
same,MBC,[8],4 µg/mL
same,"Solubility in PBS, Class",[2],Very Slightly Soluble (1000-10 000)
same,EC50,"[3]; immobilization, motionless organisms counted after 24 and 48 h, 25 °C, read-out: EC50",155 µg/mL
same,EC50,[3]; [11],100 to 1000 µg/mL
same,Class,[3],Practically Nontoxic (100-1000)
same,MIC,[9],16 µg/mL
same,MFC,"[9]; read-out: MFC, C. albicans",16 µg/mL
